{"source": "patent US7572798B2", "about": "“Combi-molecules having signal transduction inhibitory properties and DNA damaging properties” (McGill University, priority 2001, dated 2009)", "key": {"A431 cells": {"system": "A431 cells", "assay": "Alkaline comet assay for DNA damage in A431 cells", "conditions": "A431, 30 min or 2 h exposure", "experimental": "A431 cells were exposed to drugs for 30 min or 2 h, and harvested with trypsin-EDTA. The cells were subsequently collected by centrifugation and re-suspended in PBS. The resulting cell suspension was diluted to approximately 10^6 cells, and mixed with agarose (1%) in PBS at 37° C. in a 1:10 dilution. The gels were cast on Gelbond strips (Mandel Scientific, Guelph, Canada) using gel casting chambers, as previously described (32), then immediately placed into a lysis buffer [2.5 M NaCl, 0.1 M tetra-sodium EDTA, 10 mM tris-base, 1% (w/v) N-lauryl sarcosine, 10% (v/v) DMSO and 1% (v/v) Triton X-100]. After being kept on ice for 30 min, the gels were gently rinsed with distilled water and then immersed in a second lysis buffer [2.5 M NaCl, 0.1 M tetra-sodium EDTA, 10 mM tris-base], containing 1 mg/ml proteinase K for 60 min at 37° C. Thereafter, the gels were rinsed with distilled water, incubated in alkaline electrophoresis buffer for 30 min at 37° C., and electrophoresed at 300 mA for 60 min. The gels were subsequently rinsed with distilled water and placed into 1 M ammonium acetate for 30 min. They were further soaked in 100% ethanol for 2 h, dried overnight and subsequently stained with SYBR Gold ( 1/10000 dilution of stock supplied from Molecular Probes, OR) for 20 min. For evaluation of comets, DNA damage was assessed using the Tail Moment parameter (i.e. the product of the distance between the barycentres of the head and the tail of the comet. A minimum of 50 cell comets were analyzed for each sample using ALKOMET v3.1 software, and values are an average of tail moments for the entire cell population.\nCell suspensions were diluted to approximately 10^6 cells, and mixed with agarose (1%) in PBS at 37° C. in a 1:10 dilution. The gels were cast on Gelbond strips (Mandel Scientific, Guelph, Canada) using gel casting chambers, as previously described (31), and then immediately placed in a lysis buffer [2.5 M NaCl, 0.1 M tetra-sodium EDTA, 10 mM Tris-base, 1% (w/v) N-lauryl sarcosine, 10% (v/v) DMSO, and 1% (v/v) Triton X-100, pH 10.0]. After being kept on ice for 30 min, the gels were gently rinsed with distilled water and immersed in a second lysis buffer (2.5 M NaCl, 0.1 M tetrasodium EDTA, 10 mM Tris-base) containing 1 mg/ml proteinase K for 60 min at 37° C. Thereafter, the gels were rinsed with distilled water, incubated in alkaline electrophoresis buffer for 30 min at 37° C., and electrophoresed at 300 mA for 60 min. The gels were subsequently rinsed with distilled water and placed in 1 M ammonium acetate for 30 min. They were soaked in 100% ethanol for 2 h, dried overnight, and subsequently stained with SYBR Gold ( 1/10000 dilution of stock supplied from Molecular Probes, Eugene, Oreg.) for 20 min. Comets were visualized at 330× magnification and DNA damage was quantitated using the Tail Moment parameter (i.e., the distance between the barycenter of the head and the tail of the comet multiplied by the percentage of DNA within the tail of the comet). A minimum of 50 cell comets were analyzed for each sample, using ALKOMET version 3.1 image analysis software, and values are averages of tail moments for the entire cell population per sample."}, "NIH3T3HER14 cells": {"system": "NIH3T3HER14 cells", "assay": "Growth factor-stimulated proliferation in NIH3T3HER14 cells (SRB)", "format": "cell-based, mouse", "method": "To study the effect of our compounds on growth factors stimulated proliferation, cells were grown to 70% confluence in 48-well plates and washed twice with PBS, after which they were exposed to serum-free medium for 18 h. The cells were then exposed to each drug and growth factors (EGF, TGFα, PDGF or serum) for 72 h and cell growth measured using the sulforhodamine B (SRB) assay (33). Briefly, following drug treatment, cells were fixed using 50 μl of cold trichloroacetic acid (50%) for 60 min at 4° C., washed five times with tap water, and stained for 30 min at room temperature with SRB (0.4%) dissolved in acetic acid (0.5%). The plates were rinsed five times with 1% acetic acid and allowed to air dry. […] Each point represents the average of at least two independent experiments run in triplicate."}, "[1]": {"assay": "Degradation in serum-containing cell culture medium (UV, HPLC)", "format": "in vitro ADME", "conditions": "bovine, 37° C.", "method": "Thereafter, proteins were precipitated by the addition of acetonitrile (3.5 ml) and the supernatant collected by centrifugation. […] The operating mode was isocratic and two solutions, “A” (50% acetonitrile) and “B” (50% water), were used with a 0.5 ml/min flow rate and a 5 μL injection volume. […] For the rapid quantitation of metabolite, a less polar acetonitrile-water (70:30) eluent was used.\nThe half-life was estimated by a one-phase exponential decay curve-fit method using the GraphPad software package (GraphPad Software, Inc., San Diego, Calif.).\nThe half-life of BJ2000 under physiological conditions was studied by UV-spectrophotometry. BJ2000 was dissolved in a minimum volume of DMSO, diluted with RPMI-1640 supplemented with 10% FBS, and absorbencies read at 340 nm in a UV cell maintained at 37° C. with a circulating water bath. The half-life was estimated by a one-phase exponential decay curve-fit method, using the GraphPad software package (GraphPad software, Inc., San Diego, Calif., USA).\nProteins were thereafter precipitated by the addition of acetonitrile (3.5 ml), and the supernatant collected by centrifugation. […] HPLC analyses were performed on a Hewlett Packard 1090 liquid chromatograph, using a Waters C4 15-μm 300×3.9-mm reverse phase column to characterize and quantitate the products resulting from the degradation of BJ2000. […] The peaks were detected at 250 nm."}}, "note": "“Also recorded” adds a separate entry of the source."}
{"smiles": "CNN=Nc1ccc2ncnc(Nc3cccc(Cl)c3)c2c1", "note": "[BJ2000]", "values": [{"measurement": "DNA damage (comet tail moment)", "setting": "A431 cells", "result": "induced dose-dependent DNA damage; also recorded: induced significant DNA damage"}, {"measurement": "concentration giving 100% growth inhibition", "setting": "NIH3T3HER14 cells; EGF or TGFα-induced proliferation, NIH3T3HER14, 72 h", "result": 1, "unit": "µM"}, {"measurement": "concentration giving 100% inhibition", "setting": "NIH3T3HER14 cells; PDGF-stimulated growth, NIH3T3HER14, 72 h", "result": "approximately 30 μM"}, {"measurement": "fold less effective in inhibiting PDGF-stimulated growth", "setting": "NIH3T3HER14 cells; versus EGF or TGFα-induced proliferation, NIH3T3HER14", "result": "approximately 30 fold"}, {"measurement": "half-life", "setting": "[1]; serum-containing cell culture medium (RPMI with 10% serum), RPMI with 10% serum, read-out: half-life (t1/2) by UV spectrophotometry at 340 nm", "result": 34, "unit": "min"}, {"measurement": "half-life at 625 µM", "setting": "[1]; RPMI-1640 with 10% FBS, read-out: half-life (t1/2) by HPLC analysis", "result": 75, "unit": "min"}]}
